Reference: BindingDB's records for doi:10.1016/j.bmcl.2005.11.096 (Glaxosmithkline, 2006)
pEC50: −log10 of the molar value.

Assay: Agonist activity as induced proliferation in Ba/F3-hTpoR murine lymphocyte expressing human TPOR

pEC50 | SMILES
6.14 | CC(C)(C)c1ccc(-c2ccc(-c3nc4ccc(C=C5SC(=S)NC5=O)cc4[nH]3)o2)cc1 [5-((2-(5-(4-tert-butylphenyl)furan-2-yl)-1H-benzo[d]imidazol-5-yl)methylene)-2-thioxothiazolidin-4-one]
5.80 | Cc1ccc(-c2cccc(-c3nc4ccc(C=C5SC(S)=NC5=O)cc4[nH]3)n2)cc1C [5-((2-(6-(3,4-dimethylphenyl)pyridin-2-yl)-1H-benzo[d]imidazol-5-yl)methylene)-2-thioxothiazolidin-4-one]
5.70 | CC(C)(C)c1ccc(-c2cccc(-c3nc4ccc(C=C5SC(S)=NC5=O)cc4[nH]3)n2)cc1 [5-((2-(6-(4-tert-butylphenyl)pyridin-2-yl)-1H-benzo[d]imidazol-5-yl)methylene)-2-thioxothiazolidin-4-one]
6.05 | CC(C)(C)c1ccc(-c2cccc(-c3nc4ccc(C=C5SC(=S)NC5=O)cc4[nH]3)c2)cc1 [5-[1-[2-(4'-tert-Butyl-biphenyl-3-yl)-1H-benzoimidazol-5-yl]-methylidene]-2-thioxo-thiazolidin-4-one]

The next lines start with the molecule.

SMILES | pEC50
CC(C)(C)c1ccc(-c2cccc(-c3nc4ccc(CC(C(=O)O)C(=O)O)cc4[nH]3)n2)cc1 [2-((2-(6-(4-tert-butylphenyl)pyridin-2-yl)-1H-benzo[d]imidazol-5-yl)methyl)malonic acid] | 5.00
CC(=Cc1ccc2nc(-c3cccc(-c4ccc(C(C)(C)C)cc4)n3)[nH]c2c1)C(=O)O [3-(2-(6-(4-tert-butylphenyl)pyridin-2-yl)-1H-benzo[d]imidazol-5-yl)-2-methylacrylic acid] | 5.35
Cc1ccc(-c2csc(-c3nc4ccc(C=C5SC(S)=NC5=O)cc4[nH]3)c2)cc1C [5-((2-(4-(3,4-dimethylphenyl)thiophen-2-yl)-1H-benzo[d]imidazol-5-yl)methylene)-2-thioxothiazolidin-4-one] | 6.11
Cc1ccc(-c2ccc(-c3nc4ccc(C=C5SC(S)=NC5=O)cc4[nH]3)s2)cc1C [5-((2-(5-(3,4-dimethylphenyl)thiophen-2-yl)-1H-benzo[d]imidazol-5-yl)methylene)-2-thioxothiazolidin-4-one] | 5.76
